Among the test systems are 786-0; BT-549; DU-145; HCT-116; HOP-62; K562; LOX IMVI; M14; MCF7; MDA-MB-435; MOLT-4; NCI-H460; OVCAR-3; SK-OV-3; SW-620; T47D; UACC-62; NCI-H522; SN12C; MDA-N.
Common to all, as to assay: inhibition of tumour cell growth, NCI panel, 48 h

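Compound exposure: 48 hours, 5 concentrations, 96-well plates. GI50: concentration for 50% inhibition of growth.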 Active and inactive are the calls of the source. Cut-off read from the data, not from the text of the source: active = GI50 up to about 1.1 µM and inactive = higher.

Data on eleven compounds can be found in ChEMBL document CHEMBL1201862, “PubChem BioAssay data set” (2004).

As to `O=[N+]([O-])c1cccnc1-n1cnc2ccccc21`, the GI50 in the experiment with 786-0, in the experiment with BT-549, with DU-145, in the experiment on HCT-116, with HOP-62 and in the experiment with K562 was > 100 µM (inactive) throughout. Further, the GI50 in the experiment with LOX IMVI, in the experiment on M14, in the experiment on MCF7, in the experiment on MDA-MB-435, in the experiment with MOLT-4 and in the experiment on NCI-H460 was > 100 µM (inactive) in each case. Moreover, the GI50 in the experiment with OVCAR-3 was 54.6 µM (inactive); in the experiment with SK-OV-3, > 100 µM (inactive); in the experiment with SW-620, > 100 µM (inactive); in the experiment on T47D, > 100 µM (inactive); with UACC-62, > 100 µM (inactive).

For the compound `O=C(Cn1c(C(=O)c2ccccc2)nc2ccccc21)c1ccccc1`, the GI50 in the experiment with 786-0 was > 63.8 µM (inactive); in the experiment with BT-549 it was > 100 µM (inactive); with DU-145, > 100 µM (inactive); in the experiment on HCT-116, > 100 µM (inactive); in the experiment on HOP-62, 26.5 µM (inactive); with LOX IMVI it was > 100 µM (inactive). Moreover, the GI50 is > 100 µM (inactive) in the experiment on M14; > 100 µM (inactive) in the experiment on MCF7; 3.72 µM (inactive) in the experiment on MDA-MB-435; > 100 µM (inactive) with MOLT-4; > 90.6 µM (inactive) with NCI-H460; > 58.3 µM (inactive) in the experiment on NCI-H522. The GI50 in the experiment on OVCAR-3 is > 100 µM (inactive); with SK-OV-3, > 100 µM (inactive); with SN12C it was > 100 µM (inactive); with SW-620 it was 4.85 µM (inactive); in the experiment with T47D, > 100 µM (inactive); with UACC-62, > 56.6 µM (inactive).

For the compound `COC(=O)C1=C(OC(=O)/C(=C/c2ccc(Cl)cc2)c2ccc(Cl)cc2)C(C(=O)OC)[C@@]2(O)[C@@H](C(=O)OC)[C@H](C)C[C@@H]1[C@@H]2C(=O)OC` (stereo partly specified), the GI50 in the experiment on 786-0 was > 100 µM (inactive); with DU-145, > 100 µM (inactive); in the experiment on HCT-116, 31.6 µM (inactive); in the experiment with HOP-62, > 100 µM (inactive); in the experiment on K562, 2.33 µM (inactive); in the experiment with LOX IMVI, > 100 µM (inactive). In addition, the GI50 in the experiment with M14 was > 100 µM (inactive); in the experiment with MCF7 it was 58.6 µM (inactive); in the experiment with MDA-MB-435 it was > 100 µM (inactive); with MDA-N, > 100 µM (inactive); with MOLT-4, 0.328 µM (active); in the experiment on NCI-H460, 14.3 µM (inactive). Moreover, the GI50 in the experiment with NCI-H522 is 3.87 µM (inactive); in the experiment with OVCAR-3, > 45.8 µM (inactive); in the experiment with SK-OV-3 it was > 100 µM (inactive); in the experiment on SN12C it was > 100 µM (inactive); in the experiment on SW-620, 78.2 µM (inactive); in the experiment with T47D, > 74 µM (inactive). In the experiment on UACC-62, the GI50 was > 100 µM (inactive).

In the case of `COC1(C(C)(C)C)C=C(C(C)(C)C)P(=O)(O)O1` (stereo unspecified), the GI50 in the experiment on 786-0, in the experiment on DU-145, with HCT-116, in the experiment with HOP-62, in the experiment on K562 and in the experiment on LOX IMVI was > 100 µM (inactive) each time. The GI50 in the experiment with M14, in the experiment on MCF7, with MDA-MB-435, in the experiment on MDA-N, in the experiment with NCI-H460 and in the experiment on NCI-H522 was > 100 µM (inactive) each time. Further, the GI50 with OVCAR-3 was > 100 µM (inactive); in the experiment with SK-OV-3, > 100 µM (inactive); with SN12C, > 100 µM (inactive); in the experiment on SW-620, > 100 µM (inactive); with T47D, 1.36 µM (inactive); in the experiment with UACC-62, > 100 µM (inactive).

For `CCCCCCCCCc1cc(-c2ccc(C=O)s2)sc1-c1ccc(C=O)s1`, the GI50 was 28.7 µM (inactive) in the experiment with 786-0; 35.3 µM (inactive) in the experiment with BT-549; 26.7 µM (inactive) in the experiment on DU-145; 16.6 µM (inactive) in the experiment with HCT-116; 27.7 µM (inactive) in the experiment on HOP-62; 3.56 µM (inactive) with K562. In addition, the GI50 in the experiment with LOX IMVI was 11.5 µM (inactive); with M14 it was 8.47 µM (inactive); in the experiment with MCF7, 14.3 µM (inactive); in the experiment with MDA-MB-435 it was 22.6 µM (inactive); with MOLT-4 it was 1.12 µM (inactive); in the experiment on NCI-H460, 25.1 µM (inactive). Also, the GI50 in the experiment with NCI-H522 was 15.9 µM (inactive); in the experiment with OVCAR-3 it was 16.7 µM (inactive); with SK-OV-3 it was 29 µM (inactive); with SN12C, 32.5 µM (inactive); with SW-620, 30.2 µM (inactive); in the experiment on T47D it was 17.1 µM (inactive). Besides, the GI50 with UACC-62 was 7.26 µM (inactive).

Turning to `CCN(CC)CC(=O)Nc1c(C(N)=O)nnn1Cc1cc(Cl)c(C(=O)c2ccc(Cl)cc2)c(Cl)c1`, the GI50 in the experiment on 786-0 was 16.1 µM (inactive); in the experiment on BT-549, 17.8 µM (inactive); in the experiment with DU-145 it was 30.8 µM (inactive); in the experiment on HCT-116 it was 16.5 µM (inactive); with HOP-62, 18.6 µM (inactive); in the experiment on K562, 17.3 µM (inactive). Besides, the GI50 in the experiment on LOX IMVI was 16.1 µM (inactive); with M14, 16.9 µM (inactive); in the experiment on MCF7, 17.1 µM (inactive); with MDA-MB-435 it was 18.5 µM (inactive); in the experiment on MOLT-4, 16.3 µM (inactive); in the experiment on NCI-H522, 18.1 µM (inactive). Further, the GI50 in the experiment with OVCAR-3 is 16.9 µM (inactive); with SK-OV-3, 21.6 µM (inactive); with SN12C, 22.6 µM (inactive); in the experiment on SW-620 it was 19.2 µM (inactive); with T47D, 15.9 µM (inactive); in the experiment on UACC-62 it was 17.6 µM (inactive).

In the case of `[N-]=[N+]=Nc1c(Cl)c(Cl)nc2ccccc12`, the GI50 is > 100 µM (inactive) in the experiment on 786-0; 72.1 µM (inactive) with DU-145; > 100 µM (inactive) with HCT-116; > 100 µM (inactive) with HOP-62; 81.3 µM (inactive) in the experiment with K562; 62.1 µM (inactive) in the experiment on LOX IMVI. In addition, the GI50 with M14 was > 100 µM (inactive); in the experiment on MCF7, 54.5 µM (inactive); in the experiment on MDA-MB-435, > 100 µM (inactive); in the experiment on MDA-N, > 100 µM (inactive); in the experiment on MOLT-4, 32.7 µM (inactive); with NCI-H460, > 100 µM (inactive). Moreover, the GI50 in the experiment with NCI-H522 was 71.3 µM (inactive); in the experiment on OVCAR-3, 34.5 µM (inactive); with SK-OV-3, > 100 µM (inactive); with SN12C, 76 µM (inactive); in the experiment with SW-620, 93.8 µM (inactive); with T47D, 68.1 µM (inactive). Also, the GI50 in the experiment on UACC-62 is > 100 µM (inactive).

Consider `O=C(CSCC(=O)N/N=C\c1cccc(Br)c1)N/N=C\c1cccc(Br)c1`, for which the GI50 was 19.1 µM (inactive) with 786-0; 21.2 µM (inactive) with BT-549; 21.8 µM (inactive) in the experiment on DU-145; 14.8 µM (inactive) in the experiment with HCT-116; 17.4 µM (inactive) with HOP-62; 18.2 µM (inactive) in the experiment on K562. Further, the GI50 in the experiment with LOX IMVI is 10.8 µM (inactive); in the experiment on M14, 20 µM (inactive); with MCF7, 33.1 µM (inactive); with MDA-MB-435, 18.5 µM (inactive); in the experiment with MOLT-4, 21.3 µM (inactive); in the experiment with NCI-H460, 25.2 µM (inactive). Also, the GI50 is 17 µM (inactive) in the experiment with NCI-H522; 13.4 µM (inactive) in the experiment on OVCAR-3; 20.1 µM (inactive) in the experiment with SK-OV-3; 16.2 µM (inactive) in the experiment with SN12C; 27.8 µM (inactive) in the experiment with SW-620; 18.1 µM (inactive) in the experiment on T47D. Further, the GI50 in the experiment on UACC-62 was 14.7 µM (inactive).

On to `CN(C)CCNC(=O)c1nc([N+](=O)[O-])cn1C`, for which the GI50 in the experiment with 786-0, in the experiment on BT-549, in the experiment with DU-145, with HCT-116, in the experiment with HOP-62 and with K562 was > 100 µM (inactive) in each case. For the same compound, the GI50 in the experiment on LOX IMVI, with M14, in the experiment on MCF7, in the experiment on MDA-MB-435, in the experiment on MOLT-4 and in the experiment on NCI-H460 was > 100 µM (inactive) throughout. For the same compound, the GI50 with NCI-H522, in the experiment on OVCAR-3, in the experiment on SK-OV-3, in the experiment on SN12C, in the experiment with SW-620 and in the experiment with T47D was > 100 µM (inactive) in each case. For the same compound, the GI50 in the experiment on UACC-62 is > 100 µM (inactive).

Regarding `Cc1nc(C(N)=S)sc1C(=O)CC(=O)C(=O)Nc1nc2ccccc2[nH]1`, the GI50 with 786-0, in the experiment on BT-549, in the experiment with HCT-116, in the experiment on HOP-62, with K562 and with LOX IMVI was > 100 µM (inactive) in each case. Besides, the GI50 in the experiment on M14, with MCF7, in the experiment with MDA-MB-435, with MOLT-4, in the experiment on NCI-H460 and with NCI-H522 was > 100 µM (inactive) in each case. Further, the GI50 in the experiment with OVCAR-3, with SK-OV-3, in the experiment with SN12C, in the experiment with SW-620, in the experiment with T47D and in the experiment on UACC-62 was > 100 µM (inactive) in each case.

For `CC(=O)C1C(=O)C(=O)N(c2ccc([N+](=O)[O-])cc2[N+](=O)[O-])C1=O` (stereo unspecified), the GI50 in the experiment on 786-0, in the experiment with BT-549, in the experiment with DU-145, with HCT-116, with HOP-62 and in the experiment with LOX IMVI was > 100 µM (inactive) in each case. Besides, the GI50 in the experiment with M14, in the experiment with MCF7, in the experiment with MDA-MB-435, with MOLT-4, in the experiment with NCI-H460 and with NCI-H522 was > 100 µM (inactive) in each case. Also, the GI50 in the experiment with OVCAR-3 is > 100 µM (inactive); in the experiment with SK-OV-3 it was 83.6 µM (inactive); in the experiment with SN12C, > 100 µM (inactive); in the experiment with SW-620, > 100 µM (inactive); in the experiment with UACC-62, > 100 µM (inactive).
